# Results from BindingDB's records for doi:10.1016/j.chembiol.2014.09.011 (Astrazeneca R&D, 2014).
# Tests used:
# Assay in all cases: AMPD Enzymatic Activity Assay
# Details in all cases: pH 7.4
# [1] = target: T1, AMP deaminase 2 (Homo sapiens, UniProt Q01433)
# T1 sequence (Q01433 whole entry): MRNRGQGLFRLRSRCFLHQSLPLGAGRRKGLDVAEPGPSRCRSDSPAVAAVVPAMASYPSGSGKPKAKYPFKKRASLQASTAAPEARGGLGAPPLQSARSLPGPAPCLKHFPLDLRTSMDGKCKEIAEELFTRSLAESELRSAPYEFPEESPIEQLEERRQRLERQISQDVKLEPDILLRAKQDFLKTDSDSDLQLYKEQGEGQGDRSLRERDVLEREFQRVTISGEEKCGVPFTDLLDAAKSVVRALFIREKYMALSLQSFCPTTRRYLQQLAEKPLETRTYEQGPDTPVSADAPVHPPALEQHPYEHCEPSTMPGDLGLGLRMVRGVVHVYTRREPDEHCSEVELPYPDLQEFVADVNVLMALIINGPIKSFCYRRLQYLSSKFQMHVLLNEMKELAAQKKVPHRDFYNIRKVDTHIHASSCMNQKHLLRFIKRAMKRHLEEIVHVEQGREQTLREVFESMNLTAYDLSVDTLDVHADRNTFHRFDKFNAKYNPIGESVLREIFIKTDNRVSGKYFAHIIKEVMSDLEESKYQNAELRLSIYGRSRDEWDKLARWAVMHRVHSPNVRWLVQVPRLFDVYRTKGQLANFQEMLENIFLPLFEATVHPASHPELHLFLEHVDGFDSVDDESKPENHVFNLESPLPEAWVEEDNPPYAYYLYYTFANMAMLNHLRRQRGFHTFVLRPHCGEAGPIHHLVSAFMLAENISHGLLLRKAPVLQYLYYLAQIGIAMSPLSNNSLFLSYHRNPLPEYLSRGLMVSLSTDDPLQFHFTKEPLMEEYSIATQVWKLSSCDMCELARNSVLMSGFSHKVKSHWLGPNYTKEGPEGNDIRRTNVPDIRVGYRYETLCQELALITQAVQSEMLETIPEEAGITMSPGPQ
# Method: (§1) AMPD1 was added to buffer A (50 mM HEPES, 150 mM KCl, 5 mM MgCl2, and 0.5 mMglutathione [pH 7.4]) to a concentration of 10 nM. A substrate mix consistingof 2mMNADPH, 6mMa-ketoglutarate, 8mMAMP, and 15 U GDH was prepared in buffer A. Substrate mix ([…]) was added to the plate, followed by centrifugation and incubation for 1 hr. Detection was by absorbance at 340 nm following the conversion of NADPH to NADP+. Recombinant AMPD enzyme activity assays were performed in a 384-well format using the same conditions as described above, except the assay volume was […] and the AMP concentration for the AMPD2 assay was 8 mM. Different AMPD enzyme concentrations were used to have linear reactions: hAMPD1 (4 nM), hAMPD2 (38 nM), hAMPD3 (1 nM), rAMPD1 (116 nM), rAMPD2 (53 nM), rAMPD3 (31 nM), and mAMPD1 (816 nM).
# [2] = target: T2, AMP deaminase 3 (Rattus norvegicus, UniProt O09178)
# T2 sequence (O09178 whole entry): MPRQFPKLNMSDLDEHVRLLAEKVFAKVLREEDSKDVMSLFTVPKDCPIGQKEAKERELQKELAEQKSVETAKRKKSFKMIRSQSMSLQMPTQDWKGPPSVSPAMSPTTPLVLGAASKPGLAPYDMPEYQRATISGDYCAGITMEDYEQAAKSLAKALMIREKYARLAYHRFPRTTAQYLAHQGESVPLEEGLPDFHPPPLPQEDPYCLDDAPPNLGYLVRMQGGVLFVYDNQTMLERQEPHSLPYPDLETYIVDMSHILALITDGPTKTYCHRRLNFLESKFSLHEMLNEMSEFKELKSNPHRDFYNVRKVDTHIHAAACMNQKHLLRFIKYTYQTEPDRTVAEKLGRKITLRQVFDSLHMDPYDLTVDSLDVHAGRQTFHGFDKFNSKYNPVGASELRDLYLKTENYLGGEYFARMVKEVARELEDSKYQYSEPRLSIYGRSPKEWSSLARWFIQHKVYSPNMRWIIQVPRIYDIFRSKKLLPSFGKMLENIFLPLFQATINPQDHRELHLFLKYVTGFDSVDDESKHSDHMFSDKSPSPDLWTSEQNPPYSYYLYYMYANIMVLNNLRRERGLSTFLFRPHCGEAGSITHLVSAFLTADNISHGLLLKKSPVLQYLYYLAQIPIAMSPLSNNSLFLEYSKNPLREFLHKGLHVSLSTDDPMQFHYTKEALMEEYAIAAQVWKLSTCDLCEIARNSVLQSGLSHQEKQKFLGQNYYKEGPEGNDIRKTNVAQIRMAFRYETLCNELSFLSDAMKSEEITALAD
# Method: as §1
# [3] = target: T3, AMP deaminase 2 (Rattus norvegicus, UniProt Q02356)
# T3 sequence (Q02356 whole entry): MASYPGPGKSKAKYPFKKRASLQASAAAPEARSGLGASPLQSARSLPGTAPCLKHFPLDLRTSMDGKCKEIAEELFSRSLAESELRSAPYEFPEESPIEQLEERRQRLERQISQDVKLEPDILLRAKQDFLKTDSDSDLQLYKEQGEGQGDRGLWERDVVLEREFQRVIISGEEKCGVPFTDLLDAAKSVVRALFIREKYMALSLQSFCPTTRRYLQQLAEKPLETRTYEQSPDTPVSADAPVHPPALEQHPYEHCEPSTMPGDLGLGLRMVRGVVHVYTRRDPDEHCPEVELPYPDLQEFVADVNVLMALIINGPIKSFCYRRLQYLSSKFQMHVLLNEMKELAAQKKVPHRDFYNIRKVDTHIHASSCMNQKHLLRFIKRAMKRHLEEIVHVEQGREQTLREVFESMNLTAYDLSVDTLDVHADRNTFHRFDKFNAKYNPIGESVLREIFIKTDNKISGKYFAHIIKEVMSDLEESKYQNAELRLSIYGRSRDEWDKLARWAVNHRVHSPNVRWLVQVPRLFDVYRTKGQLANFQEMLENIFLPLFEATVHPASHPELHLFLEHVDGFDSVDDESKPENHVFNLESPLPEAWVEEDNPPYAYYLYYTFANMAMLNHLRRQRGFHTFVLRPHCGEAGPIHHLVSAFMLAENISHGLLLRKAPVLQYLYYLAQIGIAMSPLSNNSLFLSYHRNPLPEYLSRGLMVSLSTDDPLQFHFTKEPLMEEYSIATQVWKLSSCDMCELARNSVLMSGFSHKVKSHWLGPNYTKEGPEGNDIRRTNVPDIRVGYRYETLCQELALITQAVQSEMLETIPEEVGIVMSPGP
# Method: as §1
smiles,measurement,setting,value
C[C@H](NCc1ccc(-c2ccc(C(=O)O)cn2)cc1)c1cccc2ccncc12 [6-[4-({[(1S)-1-(isoquinolin-8-yl)ethyl]amino}methyl)phenyl]pyridine-3-carboxylic acid (Compound 3)],IC50,[1],0.016 µM
same,IC50,[2],0.4 µM
same,IC50,[3],0.57 µM
C[C@@H](NCc1ccc(-c2ccc(C(=O)O)cn2)cc1)c1cccc2ccncc12 [6-[4-({[(1R)-1-(isoquinolin-8-yl)ethyl]amino}methyl)phenyl]pyridine-3-carboxylic acid (Compound 2)],IC50,[1],32 µM
same,IC50,[2],44 µM
same,IC50,[3],32 µM
